Measurements: a compilation of properties of binary mixtures (doi:10.1016/j.molliq.2019.111925)

Assay: xn = mol fraction of the nth substance listed
Conditions: 100 kPa

O + CC(=O)[O-].CC[n+]1ccn(C)c1
x2 = 0
Conditions | speed of sound [m/s]
293.15 K | 1485
298.15 K | 1499
303.15 K | 1511
333.15 K | 1551
343.15 K | 1554

CC(=O)[O-].CC[n+]1ccn(C)c1 + O
Conditions | electrical conductivity [S/m] | speed of sound [m/s]
293.15 K, x1 = 0.105 | – | 1942
293.15 K, x1 = 0.1988 | – | 1959
293.15 K, x1 = 0.2003 | 1.59 | –
293.15 K, x1 = 0.3952 | 0.833 | –
293.15 K, x1 = 0.4445 | – | 1852
293.15 K, x1 = 0.5602 | – | 1776
293.15 K, x1 = 0.5984 | 0.49 | –
293.15 K, x1 = 0.7375 | – | 1778
293.15 K, x1 = 0.8521 | – | 1762
293.15 K, x1 = 0.9481 | 0.228 | –
293.15 K, x2 = 0.0174 | – | 1753
298.15 K, x1 = 0.4445 | – | 1839
298.15 K, x1 = 0.5602 | – | 1764
298.15 K, x1 = 0.7375 | – | 1765
298.15 K, x1 = 0.8521 | – | 1749
298.15 K, x1 = 0.9481 | 0.301 | –
298.15 K, x1 = 1 | 0.299 | 1740
298.15 K, x2 = 0.0174 | – | 1740
303.15 K, x1 = 0.105 | – | 1917
303.15 K, x1 = 0.1988 | – | 1932
303.15 K, x1 = 0.3952 | 1.28 | –
303.15 K, x1 = 0.4445 | – | 1827
303.15 K, x1 = 0.5602 | – | 1753
303.15 K, x1 = 0.5984 | 0.776 | –
303.15 K, x1 = 0.7375 | – | 1753
303.15 K, x1 = 0.8521 | – | 1736
303.15 K, x1 = 0.9481 | 0.392 | –
303.15 K, x1 = 1 | 0.391 | 1727
303.15 K, x2 = 0.0174 | – | 1726
313.15 K, x1 = 0.1988 | – | 1904
313.15 K, x1 = 0.2003 | 3.32 | –
313.15 K, x1 = 0.3952 | 1.84 | –
313.15 K, x1 = 0.4445 | – | 1803
313.15 K, x1 = 0.5602 | – | 1729
313.15 K, x1 = 0.5984 | 1.16 | –
313.15 K, x1 = 0.7375 | – | 1729
313.15 K, x1 = 0.7987 | 0.819 | –
313.15 K, x1 = 0.8521 | – | 1712
313.15 K, x1 = 0.9481 | 0.627 | –
313.15 K, x1 = 1 | 0.625 | 1701
313.15 K, x2 = 0.0174 | – | 1701
323.15 K, x1 = 0.105 | – | 1864
323.15 K, x1 = 0.2003 | 4.45 | –
323.15 K, x1 = 0.3952 | 2.52 | –
323.15 K, x1 = 0.4445 | – | 1779
323.15 K, x1 = 0.5602 | – | 1707
323.15 K, x1 = 0.7375 | – | 1705
323.15 K, x1 = 0.7987 | 1.19 | –
323.15 K, x1 = 0.8521 | – | 1687
323.15 K, x1 = 0.9481 | 0.934 | –
323.15 K, x1 = 1 | 0.929 | 1676
323.15 K, x2 = 0.0174 | – | 1676
333.15 K, x1 = 0.105 | – | 1846
333.15 K, x1 = 0.1988 | – | 1848
333.15 K, x1 = 0.2003 | 5.75 | –
333.15 K, x1 = 0.3952 | 3.32 | –
333.15 K, x1 = 0.5602 | – | 1690
333.15 K, x1 = 0.5984 | 2.19 | –
333.15 K, x1 = 0.7375 | – | 1682
333.15 K, x1 = 0.7987 | 1.64 | –
333.15 K, x1 = 0.8521 | – | 1664
343.15 K, x1 = 0.105 | – | 1809
343.15 K, x1 = 0.4445 | – | 1731
343.15 K, x1 = 0.5602 | – | 1668
343.15 K, x1 = 0.7375 | – | 1659
343.15 K, x1 = 0.9481 | 1.76 | –
343.15 K, x2 = 0.0174 | – | 1629
353.15 K, x1 = 0.9481 | 2.28 | –
353.15 K, x1 = 1 | 2.28 | –
